This note sets out measurements from patent publication US12139487B2, “Compounds and uses thereof” (Foghorn Therapeutics Inc., priority 2022, dated 2024).

As a reminder, the IC50 is the concentration that gives 50% inhibition.

The target in one assay is T1, BRG-1 (Homo sapiens, UniProt P51532).
T1 construct: made in house; host or cells: High Five insect cells
In words: ATPase catalytic activity assay (ADP-Glo), BRG-1. To be noted: Table 10, read-out: BRG1 IC50. It counts as biochemical. The gist of the method:
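Once the ATPase reaction finished, leftover ATP was depleted over 40 minutes at room temperature. Generated ADP was next turned back into ATP during a 60-minute room-temperature step. Luciferase-derived light was then measured.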

A further assay deals with T2, BRM (Homo sapiens, UniProt P51531).
T2 construct: made in house; host or cells: High Five insect cells
Nature of the assay: ATPase catalytic activity assay (ADP-Glo), BRM. To be noted: Table 10; for Ratio (BRG1 IC50 (μM) divided by BRM IC50 (μM)): ATPase assay, selectivity BRG1/BRM; for IC50: ATPase catalytic activity assay (ADP-Glo). It counts as biochemical. The gist of the method:
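ADP-Glo luminescence measures ADP produced by BRM ATPase (30 nM) during 1 h at room temperature. ATP is 400 μM, with 20 nM salmon sperm DNA as cofactor. Buffer: 20 mM Tris pH 8, 20 mM MgCl2, 50 mM NaCl, 0.1% Tween-20, 1 mM DTT.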
(ADP-Glo turns the ADP formed in a reaction into a luminescent signal.)

T1 sequence (P51532 whole entry): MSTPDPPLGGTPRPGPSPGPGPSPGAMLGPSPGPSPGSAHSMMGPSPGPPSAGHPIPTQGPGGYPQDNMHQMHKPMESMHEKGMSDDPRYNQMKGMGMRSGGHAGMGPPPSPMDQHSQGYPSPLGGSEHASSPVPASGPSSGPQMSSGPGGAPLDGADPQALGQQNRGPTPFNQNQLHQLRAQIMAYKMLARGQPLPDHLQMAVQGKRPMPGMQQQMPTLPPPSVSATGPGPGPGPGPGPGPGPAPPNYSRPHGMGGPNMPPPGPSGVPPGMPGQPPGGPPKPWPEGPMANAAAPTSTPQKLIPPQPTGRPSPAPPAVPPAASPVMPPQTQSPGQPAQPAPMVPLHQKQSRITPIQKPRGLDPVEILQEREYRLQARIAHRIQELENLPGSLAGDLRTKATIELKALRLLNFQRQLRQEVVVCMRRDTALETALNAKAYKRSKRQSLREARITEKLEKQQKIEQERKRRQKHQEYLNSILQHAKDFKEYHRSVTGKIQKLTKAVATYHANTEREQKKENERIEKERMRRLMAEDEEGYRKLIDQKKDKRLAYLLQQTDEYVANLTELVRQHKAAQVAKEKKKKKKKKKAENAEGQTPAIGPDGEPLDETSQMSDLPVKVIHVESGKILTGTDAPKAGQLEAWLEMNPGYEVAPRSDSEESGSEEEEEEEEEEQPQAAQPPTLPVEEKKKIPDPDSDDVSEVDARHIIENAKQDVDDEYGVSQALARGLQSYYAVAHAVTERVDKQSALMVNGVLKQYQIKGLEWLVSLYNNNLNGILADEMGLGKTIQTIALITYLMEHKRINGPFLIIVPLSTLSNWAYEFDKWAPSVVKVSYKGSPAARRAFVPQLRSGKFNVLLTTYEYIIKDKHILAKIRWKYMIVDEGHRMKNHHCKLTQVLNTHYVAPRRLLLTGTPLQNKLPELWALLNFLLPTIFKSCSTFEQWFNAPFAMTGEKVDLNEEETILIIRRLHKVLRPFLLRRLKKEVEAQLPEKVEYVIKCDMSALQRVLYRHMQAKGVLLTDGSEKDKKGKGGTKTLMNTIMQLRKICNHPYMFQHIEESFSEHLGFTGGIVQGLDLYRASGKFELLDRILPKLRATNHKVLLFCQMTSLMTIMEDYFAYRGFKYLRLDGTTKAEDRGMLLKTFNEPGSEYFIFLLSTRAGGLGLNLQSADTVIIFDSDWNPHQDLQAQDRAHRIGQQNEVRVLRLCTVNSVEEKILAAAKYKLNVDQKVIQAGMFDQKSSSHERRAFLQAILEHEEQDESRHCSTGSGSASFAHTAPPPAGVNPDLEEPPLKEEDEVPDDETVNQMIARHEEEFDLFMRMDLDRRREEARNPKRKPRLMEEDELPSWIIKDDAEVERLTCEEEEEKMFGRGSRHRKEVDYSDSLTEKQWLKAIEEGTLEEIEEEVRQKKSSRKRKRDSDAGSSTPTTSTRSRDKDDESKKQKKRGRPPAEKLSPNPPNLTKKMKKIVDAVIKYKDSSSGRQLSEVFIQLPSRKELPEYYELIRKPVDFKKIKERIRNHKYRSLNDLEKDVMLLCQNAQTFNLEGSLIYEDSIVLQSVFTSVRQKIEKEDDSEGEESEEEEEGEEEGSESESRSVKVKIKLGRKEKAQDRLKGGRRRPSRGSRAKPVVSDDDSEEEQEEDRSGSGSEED
T2 sequence (P51531 whole entry): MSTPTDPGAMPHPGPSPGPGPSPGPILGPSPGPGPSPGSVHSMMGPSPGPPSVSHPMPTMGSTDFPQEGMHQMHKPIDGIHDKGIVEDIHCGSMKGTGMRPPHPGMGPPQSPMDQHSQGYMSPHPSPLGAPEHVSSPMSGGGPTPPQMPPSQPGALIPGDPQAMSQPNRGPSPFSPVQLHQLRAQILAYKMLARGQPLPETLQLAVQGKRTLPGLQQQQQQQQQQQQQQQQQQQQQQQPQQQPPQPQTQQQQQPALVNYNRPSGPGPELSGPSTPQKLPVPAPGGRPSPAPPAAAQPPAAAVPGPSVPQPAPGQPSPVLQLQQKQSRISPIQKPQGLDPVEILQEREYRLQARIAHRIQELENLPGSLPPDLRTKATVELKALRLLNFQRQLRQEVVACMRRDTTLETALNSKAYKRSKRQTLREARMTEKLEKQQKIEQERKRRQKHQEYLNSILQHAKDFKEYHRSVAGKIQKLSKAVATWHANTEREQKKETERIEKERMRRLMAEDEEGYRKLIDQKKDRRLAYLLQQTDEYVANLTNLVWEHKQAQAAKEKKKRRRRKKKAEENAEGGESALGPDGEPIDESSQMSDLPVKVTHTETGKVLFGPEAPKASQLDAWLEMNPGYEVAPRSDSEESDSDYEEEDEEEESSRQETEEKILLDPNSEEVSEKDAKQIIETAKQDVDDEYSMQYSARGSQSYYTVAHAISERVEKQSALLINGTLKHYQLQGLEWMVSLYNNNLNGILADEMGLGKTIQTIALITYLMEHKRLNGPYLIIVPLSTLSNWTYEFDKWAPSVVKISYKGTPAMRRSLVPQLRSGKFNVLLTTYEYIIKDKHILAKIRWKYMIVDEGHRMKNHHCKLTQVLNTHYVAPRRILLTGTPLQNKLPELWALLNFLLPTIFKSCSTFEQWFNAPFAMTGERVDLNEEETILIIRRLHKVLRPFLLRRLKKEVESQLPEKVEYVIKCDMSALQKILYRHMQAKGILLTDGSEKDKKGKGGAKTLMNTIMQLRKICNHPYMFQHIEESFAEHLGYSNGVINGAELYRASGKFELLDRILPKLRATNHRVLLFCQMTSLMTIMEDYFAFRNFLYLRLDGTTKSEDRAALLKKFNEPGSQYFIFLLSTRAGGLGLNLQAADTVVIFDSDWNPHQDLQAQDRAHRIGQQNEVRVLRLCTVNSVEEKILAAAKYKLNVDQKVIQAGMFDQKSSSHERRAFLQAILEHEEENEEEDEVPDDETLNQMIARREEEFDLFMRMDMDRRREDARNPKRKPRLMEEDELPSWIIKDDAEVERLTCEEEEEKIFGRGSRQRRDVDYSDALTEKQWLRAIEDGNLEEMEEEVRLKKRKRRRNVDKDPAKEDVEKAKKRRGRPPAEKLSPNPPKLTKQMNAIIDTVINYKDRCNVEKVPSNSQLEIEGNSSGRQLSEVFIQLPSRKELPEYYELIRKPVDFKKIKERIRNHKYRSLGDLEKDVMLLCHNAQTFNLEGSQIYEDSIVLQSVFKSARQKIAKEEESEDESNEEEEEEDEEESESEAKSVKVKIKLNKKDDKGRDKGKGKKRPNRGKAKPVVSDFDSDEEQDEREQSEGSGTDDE

Consider `O=C(NCc1cc2nc(N3CCOc4ccc(C(F)F)nc43)ccc2cn1)c1cc(F)c2c(c1)S(=O)(=O)[C@@H](F)COC2` [Compound 58], for which the results for the IC50 on BRG-1 and on BRM were 64.4 nM and 2.5 nM, respectively. Moreover, the “Ratio (BRG1 IC50 (μM) divided by BRM IC50 (μM))” value on BRM amounted to 23.60.

Consider `O=C(NCc1cc2nc(N3CCOc4cc(N5CC[C@H](F)[C@@H](F)C5)cnc43)ccc2cn1)c1cc(F)c2c(c1)S(=O)(=O)[C@@H](F)CCO2` [Compound 109], for which the IC50 on BRG-1 was found to be 87.2 nM; against BRM, 3.9 nM. Also, the “Ratio (BRG1 IC50 (μM) divided by BRM IC50 (μM))” value on BRM came out at 17.52.

Regarding `O=C(NCc1cc2cc(N3CCOc4cc(C(F)F)cnc43)ccc2cn1)c1cc(F)c2c(c1)S(=O)(=O)[C@@H](F)CCO2` [Compound 303], on BRG-1, the IC50 amounted to 108 nM. Also, on BRM, the “Ratio (BRG1 IC50 (μM) divided by BRM IC50 (μM))” value is listed as 10.70 and the IC50 is 10.1 nM.

With `Cc1cc(C(=O)NCc2cc3nc(N4CCOc5cc(N6CC[C@H]6C)cnc54)ccc3cn2)cc2c1COC[C@H](F)S2(=O)=O` [Compound 28], on BRG-1, the IC50 came out at 42.2 nM. On BRM, the “Ratio (BRG1 IC50 (μM) divided by BRM IC50 (μM))” value worked out at 22.66 and the IC50 stood at 1.8 nM.

On to `O=C(NCc1cc2nc(N3CCOc4c(N5CC(F)C5)ccnc43)ccc2cn1)c1cc(F)c2c(c1)S(=O)(=O)[C@@H](F)CCO2` [Compound 285], for which the IC50 on BRG-1 amounted to 94.6 nM. On BRM, the “Ratio (BRG1 IC50 (μM) divided by BRM IC50 (μM))” value is 9.97 and the IC50 is 9.5 nM.

As to `CO[C@@H]1C[C@H]1N(C)c1cccc(-c2ccc3cnc(CNC(=O)c4cc(F)c5c(c4)S(=O)(=O)[C@@H](F)COC5)cc3n2)n1` [Compound 215], the IC50 on BRG-1 was determined as 89.3 nM; on BRM it was 6.5 nM. The “Ratio (BRG1 IC50 (μM) divided by BRM IC50 (μM))” value at BRM was 13.76.

On to `Cc1cnc2c(c1)OCCN2c1ccc2cnc(CNC(=O)c3ccc4c(c3)S(=O)(=O)[C@@H](F)CCO4)cc2n1` [Compound 83], for which the values for the IC50 at BRG-1 and at BRM were 49.6 nM and 3.1 nM, respectively. In addition, the “Ratio (BRG1 IC50 (μM) divided by BRM IC50 (μM))” value at BRM was 19.36.

Regarding `COc1cc2c(nc1C(F)F)N(c1ccc3cnc(CNC(=O)c4cc(F)c5c(c4)S(=O)(=O)[C@@H](F)CCO5)cc3n1)CCO2` [Compound 81], on BRG-1, the 50% inhibitory concentration (IC50) is 46.7 nM. In addition, on BRM, the “Ratio (BRG1 IC50 (μM) divided by BRM IC50 (μM))” value worked out at 14.31 and the IC50 was found to be 3 nM.

As for `COc1ccc(-c2ccc3cnc(CNC(=O)c4cc(F)c5c(c4)S(=O)(=O)[C@@H](F)COC5)cc3n2)nc1[C@H]1CC1(F)F` [Compound 280], the figures for the IC50 at BRG-1 and against BRM were 106 nM and 9.2 nM, respectively. Besides, the “Ratio (BRG1 IC50 (μM) divided by BRM IC50 (μM))” value on BRM is recorded as 11.58.

As for `COc1nc([C@H](C)F)ccc1-c1ccc2cnc(CNC(=O)c3cc(F)c4c(c3)S(=O)(=O)[C@@H](F)CCO4)cc2n1` [Compound 173], the 50% inhibitory concentration (IC50) on BRG-1 was found to be 178 nM; against BRM, 5.5 nM. The “Ratio (BRG1 IC50 (μM) divided by BRM IC50 (μM))” value at BRM came out at 30.21.

On to `COCCn1c(C)cc2c(-c3ccc4cnc(CNC(=O)c5cc(F)c6c(c5)S(=O)(=O)[C@@H](F)CCO6)cc4n3)cccc21` [Compound 2], for which, on BRG-1, the IC50 turned out to be 10.5 nM. In addition, on BRM, the “Ratio (BRG1 IC50 (μM) divided by BRM IC50 (μM))” value amounted to 18.80 and 0.6 nM corresponded to half-maximal inhibition (IC50).

In the case of `O=C(NCc1cc2nc(N3CCOc4ccc(C(F)F)nc43)ccc2cn1)c1cc(F)c2c(c1)S(=O)(=O)[C@@H](F)CCO2` [Compound 185], the IC50 at BRG-1 stood at 110 nM; against BRM it was 5.7 nM. Further, on BRM, the “Ratio (BRG1 IC50 (μM) divided by BRM IC50 (μM))” value amounted to 21.73.

`O=C(NCc1cc2nc(N3CCOc4ccc([C@H]5C[C@@H]5C(F)F)nc43)ccc2cn1)c1cc(F)c2c(c1)S(=O)(=O)[C@@H](F)CCO2` [Compound 125]: the concentration for half-maximal inhibition (IC50) on BRG-1 stood at 81.5 nM. Besides, on BRM, the “Ratio (BRG1 IC50 (μM) divided by BRM IC50 (μM))” value amounted to 19.09 and the IC50 came to 4.3 nM.

With `COc1cc(F)ccc1-c1ccc2cnc(CNC(=O)c3cc(F)c4c(c3)S(=O)(=O)[C@@H](F)CCO4)cc2n1` [Compound 158], the IC50 on BRG-1 was found to be 86.7 nM. For the same compound, on BRM, the “Ratio (BRG1 IC50 (μM) divided by BRM IC50 (μM))” value is on record as 17.08 and the IC50 turned out to be 5.1 nM.
